Assay results published in patent US20230286923A1 (INIPHARM, INC., priority 2020, published 2023).

Biological target: HSD17B13 enzyme (Homo sapiens (Human), UniProt Q7Z5P4)
Assay: Estrone detection assay (LC/MS, conversion of estradiol to estrone) for HSD17B13 activity
Assay type: biochemical
Conditions: substrate 4 µM estradiol, 6 mM NAD+, 30 nM enzyme
Protocol: The liquid chromatography/mass spectrometry (LC/MS) estrone detection assay monitors the conversion of estradiol to estrone by HSD17B13. This assay was undertaken in a 96wp format (Eppendorf deep well Plate 96/500) in an 80 µl reaction volume containing: 4 µM of Estradiol (E2; Cayman; #10006315), 6 mM NAD^+ (Sigma; #N0623) and 30 nM HSD17B13 enzyme (in-house; E. coli expressed His-tagged, purified, soluble protein) in a reaction containing 1 M potassium phosphate buffer pH 7.4, with 0.5% vehicle (DMSO). Reactions were incubated for 2 hours at 26.5° C., and estradiol (E2) conversion to estrone (E1) was quantitated by LC-MS/MS based analyte detection for both E2 and E1 using LCMS grade reagents.
Reactions were terminated by the addition of two volumes of acetonitrile (MeCN; LCMS grade; CAS# 75/05/8) containing deuterated (D4)-E1 used as internal standard (Clear Synth; #CS-T-54273; 500 ng/mL final concentration). Samples were applied to pre-prepared Bond Elut-C18 extraction cartridges (3 mL; Agilent; #12102028), washed and eluted in MeCN. Eluates were dried under nitrogen and re-suspended in 60% methanol (LCMS grade methanol; CAS# 67/56/1) before submission for analysis. Aqueous linearity for E2 and E1 were included for quantification.
Analysis of samples was undertaken on a XBridge BEH C18 column (Waters; #186003033) using 0.1% Diethyl Amine in MeCN (mobile phase A; DEA CAS# 109-89-7) and 0.1% Diethyl Amine in milli-Q water (mobile phase B) in a 3 min gradient allowing 25%B. Analytes were detected in negative mode using MRM analysis, with E2 having a RT of 1.85 min and E1 having a RT of 2 min. Activity of the enzyme, in the absence of NAD^+, was used to evaluate specificity of conversion. Enzyme activity in the presence of test samples was expressed as a percentage of the uninhibited enzyme activity, and plotted versus inhibitor concentration. Non-linear regression was performed using a four-parameter logistic model and GraphPad Prism software (GraphPad Software, La Jolla, CA). All assessments were undertaken in duplicate evaluations and pooled during extraction process and subsequently injected as duplicates for LC-MS/MS analysis.

HSD17B13 enzyme, sequence (Q7Z5P4 20-300): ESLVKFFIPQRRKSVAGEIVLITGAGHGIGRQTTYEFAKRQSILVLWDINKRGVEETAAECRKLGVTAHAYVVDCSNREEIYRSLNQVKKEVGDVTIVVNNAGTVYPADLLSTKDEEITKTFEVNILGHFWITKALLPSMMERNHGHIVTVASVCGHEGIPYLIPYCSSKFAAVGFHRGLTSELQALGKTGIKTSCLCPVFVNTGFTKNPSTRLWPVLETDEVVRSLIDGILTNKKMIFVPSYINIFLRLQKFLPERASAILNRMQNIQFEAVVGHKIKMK

| IC50 [nM] | Compound |
| --- | --- |
| ≤ 100 | N#Cc1cc(C(=O)Nc2cccc3ncn(Cc4ccccc4C(F)(F)F)c(=O)c23)cc(F)c1O [Example 52, 3-cyano-5-fluoro-4-hydroxy-N-(4-oxo-3-(2-(trifluoromethyl)benzyl)-3,4-dihydroquinazolin-5-yl)benzamide] |
| 100 to 1000 | O=C(Nc1cccc2ncn(Cc3ccc(F)cc3)c(=O)c12)c1cc(Cl)c(O)c(C(F)(F)F)c1 [Example 35, 3-chloro-N-(3-(4-fluorobenzyl)-4-oxo-3,4-dihydroquinazolin-5-yl)-4-hydroxy-5-(trifluoromethyl)benzamide] |
| 100 to 1000 | N#Cc1cc(C(=O)Nc2cccc3ncn(Cc4ccccc4F)c(=O)c23)cc(Cl)c1O [Example 37, 3-chloro-5-cyano-N-(3-(2-fluorobenzyl)-4-oxo-3,4-dihydroquinazolin-5-yl)-4-hydroxybenzamide] |
| 100 to 1000 | O=C(Nc1cccc2ncn(Cc3ccc(C(F)(F)F)cc3)c(=O)c12)c1cc(Cl)c(O)c(C(F)(F)F)c1 [Example 46, 3-chloro-4-hydroxy-N-(4-oxo-3-(4-(trifluoromethyl)benzyl)-3,4-dihydroquinazolin-5-yl)-5-(trifluoromethyl)benzamide] |
| 1000 to 10000 | CC(C)(C)CCn1cnc2cccc(NC(=O)c3cnc(O)c(Cl)c3)c2c1=O [Example 12, 5-chloro-N-(3-(3,3-dimethylbutyl)-4-oxo-3,4-dihydroquinazolin-5-yl)-6-hydroxynicotinamide] |
| ≤ 100 | N#Cc1ccccc1Cn1cnc2cccc(NC(=O)c3cc(F)c(O)c(C#N)c3)c2c1=O [Example 60, 3-cyano-N-{3-[(2-cyanophenyl)methyl]-4-oxo-3,4-dihydroquinazolin-5-yl}-5-fluoro-4-hydroxybenzamide] |
| 100 to 1000 | CS(=O)(=O)c1ccccc1Cn1cnc2cccc(NC(=O)c3cc(F)c(O)c(C#N)c3)c2c1=O [Example 62, 3-cyano-5-fluoro-4-hydroxy-N-(3-(2-(methylsulfonyl)benzyl)-4-oxo-3,4-dihydroquinazolin-5-yl)benzamide] |
| 100 to 1000 | O=C(Nc1cccc2ncn(Cc3ccccc3C(F)(F)F)c(=O)c12)c1cc(Cl)c(O)c(C(F)(F)F)n1 [Example 55, 4-chloro-5-hydroxy-N-(4-oxo-3-(2-(trifluoromethyl)benzyl)-3,4-dihydroquinazolin-5-yl)-6-(trifluoromethyl)picolinamide] |
| 100 to 1000 | O=C(Nc1cccc2ncn(Cc3ccccc3F)c(=O)c12)c1cc(Cl)c(O)c(C(F)(F)F)n1 [Example 45, 4-chloro-N-(3-(2-fluorobenzyl)-4-oxo-3,4-dihydroquinazolin-5-yl)-5-hydroxy-6-(trifluoromethyl)picolinamide] |
| 100 to 1000 | CC(C)(C)n1ccc(Cn2cnc3cccc(NC(=O)c4cc(F)c(O)c(C#N)c4)c3c2=O)n1 [Example 63, N-(3-((1-(tert-butyl)-1H-pyrazol-3-yl)methyl)-4-oxo-3,4-dihydroquinazolin-5-yl)-3-cyano-5-fluoro-4-hydroxybenzamide] |
| 100 to 1000 | O=C(Nc1cccc2ncn(Cc3cccc(F)c3)c(=O)c12)c1cc(C(F)(F)F)c(O)c(C(F)(F)F)n1 [Example 40, N-(3-(3-fluorobenzyl)-4-oxo-3,4-dihydroquinazolin-5-yl)-5-hydroxy-4,6-bis(trifluoromethyl)picolinamide] |
| ≤ 100 | N#Cc1cc(C(=O)Nc2cccc3ncn(Cc4ccc(C(F)(F)F)cc4)c(=O)c23)cc(F)c1O [Example 59, 3-cyano-5-fluoro-4-hydroxy-N-(4-oxo-3-(4-(trifluoromethyl)benzyl)-3,4-dihydroquinazolin-5-yl)benzamide] |
| 100 to 1000 | C[C@@H](c1cccc(F)c1)n1cnc2cccc(NC(=O)c3cc(Cl)c(O)c(C(F)(F)F)n3)c2c1=O [Example 43, (S)-4-chloro-N-(3-(1-(3-fluorophenyl)ethyl)-4-oxo-3,4-dihydroquinazolin-5-yl)-5-hydroxy-6-(trifluoromethyl)picolinamide] |
| 100 to 1000 | N#Cc1cc(C(=O)Nc2cccc3ncn(Cc4ccc(OC(F)(F)F)cc4)c(=O)c23)cc(F)c1O [Example 53, 3-cyano-5-fluoro-4-hydroxy-N-(4-oxo-3-(4-(trifluoromethoxy)benzyl)-3,4-dihydroquinazolin-5-yl)benzamide] |
| > 10000 | O=C(Nc1cccc2ncn(Cc3cccc(F)c3)c(=O)c12)c1cc(Cl)c(O)c(=O)[nH]1 [Example 65, 4-chloro-N-(3-(3-fluorobenzyl)-4-oxo-3,4-dihydroquinazolin-5-yl)-5-hydroxy-6-oxo-1,6-dihydropyridine-2-carboxamide] |
| 100 to 1000 | C[C@@H](c1cccc(F)c1)n1cnc2cccc(NC(=O)c3cc(Cl)c(O)c(C#N)c3)c2c1=O [Example 38, (S)-3-chloro-5-cyano-N-(3-(1-(3-fluorophenyl)ethyl)-4-oxo-3,4-dihydroquinazolin-5-yl)-4-hydroxybenzamide] |
| 1000 to 10000 | O=C(Nc1cccc2ncn(Cc3nncs3)c(=O)c12)c1cc(Cl)c(O)c(C(F)(F)F)c1 [Example 36, N-(3-((1,3,4-thiadiazol-2-yl)methyl)-4-oxo-3,4-dihydroquinazolin-5-yl)-3-chloro-4-hydroxy-5-(trifluoromethyl)benzamide] |
| 100 to 1000 | N#Cc1cc(C(=O)Nc2cccc3ncn(Cc4cccc(OC(F)(F)F)c4)c(=O)c23)cc(F)c1O [Example 56, 3-cyano-5-fluoro-4-hydroxy-N-(4-oxo-3-(3-(trifluoromethoxy)benzyl)-3,4-dihydroquinazolin-5-yl)benzamide] |
| 100 to 1000 | O=C(Nc1cccc2ncn(Cc3ccccc3C(F)(F)F)c(=O)c12)c1cc(Cl)c(O)c(C(F)(F)F)c1 [Example 39, 3-chloro-4-hydroxy-N-(4-oxo-3-(2-(trifluoromethyl)benzyl)-3,4-dihydroquinazolin-5-yl)-5-(trifluoromethyl)benzamide] |
| 1000 to 10000 | NC(=O)c1cc(C(=O)Nc2cccc3ncn(Cc4cccc(C(F)(F)F)c4)c(=O)c23)cc(F)c1O [Example 54, 5-fluoro-4-hydroxy-N1-(4-oxo-3-(3-(trifluoromethyl)benzyl)-3,4-dihydroquinazolin-5-yl)isophthalamide] |
| 1000 to 10000 | O=C(Nc1cccc2ncn(Cc3ccc(C(F)(F)F)cc3)c(=O)c12)c1cc(Cl)c(O)c(C(F)(F)F)n1 [Example 51, 4-chloro-5-hydroxy-N-(4-oxo-3-(4-(trifluoromethyl)benzyl)-3,4-dihydroquinazolin-5-yl)-6-(trifluoromethyl)picolinamide] |
| 100 to 1000 | N#Cc1cc(C(=O)Nc2cccc3ncn(Cc4cc[nH]n4)c(=O)c23)cc(F)c1O [Example 61, N-(3-((1H-pyrazol-3-yl)methyl)-4-oxo-3,4-dihydroquinazolin-5-yl)-3-cyano-5-fluoro-4-hydroxybenzamide] |
| 100 to 1000 | N#Cc1cc(C(=O)Nc2cccc3ncn(Cc4ccc(OC(F)(F)F)cc4)c(=O)c23)cc(Cl)c1O [Example 58, 3-chloro-5-cyano-4-hydroxy-N-(4-oxo-3-(4-(trifluoromethoxy)benzyl)-3,4-dihydroquinazolin-5-yl)benzamide] |
| 100 to 1000 | O=C(Nc1cccc2ncn(Cc3ccccc3F)c(=O)c12)c1cc(Cl)c(O)c(C(F)(F)F)c1 [Example 41, 3-chloro-N-(3-(2-fluorobenzyl)-4-oxo-3,4-dihydroquinazolin-5-yl)-4-hydroxy-5-(trifluoromethyl)benzamide] |
| 100 to 1000 | N#Cc1cc(C(=O)Nc2cccc3ncn(Cc4cccc(F)c4)c(=O)c23)cc(Cl)c1O [Example 49, 3-chloro-5-cyano-N-(3-(3-fluorobenzyl)-4-oxo-3,4-dihydroquinazolin-5-yl)-4-hydroxybenzamide] |
| 100 to 1000 | O=C(Nc1cccc2ncn(Cc3ccccc3OC(F)(F)F)c(=O)c12)c1cc(Cl)c(O)c(C(F)(F)F)n1 [Example 50, 4-chloro-5-hydroxy-N-(4-oxo-3-(2-(trifluoromethoxy)benzyl)-3,4-dihydroquinazolin-5-yl)-6-(trifluoromethyl)picolinamide] |
| ≤ 100 | C[C@@H](c1cccc(F)c1)n1cnc2cccc(NC(=O)c3cc(F)c(O)c(C#N)c3)c2c1=O [Example 47, (S)-3-cyano-5-fluoro-N-(3-(1-(3-fluorophenyl)ethyl)-4-oxo-3,4-dihydroquinazolin-5-yl)-4-hydroxybenzamide] |
| ≤ 100 | N#Cc1cc(C(=O)Nc2cccc3ncn(Cc4cccc(C(F)(F)F)c4)c(=O)c23)cc(F)c1O [Example 57, 3-cyano-5-fluoro-4-hydroxy-N-(4-oxo-3-(3-(trifluoromethyl)benzyl)-3,4-dihydroquinazolin-5-yl)benzamide] |
| 100 to 1000 | N#Cc1cc(C(=O)Nc2cccc3ncn(Cc4cccc(OC(F)(F)F)c4)c(=O)c23)cc(Cl)c1O [Example 48, 3-chloro-5-cyano-4-hydroxy-N-(4-oxo-3-(3-(trifluoromethoxy)benzyl)-3,4-dihydroquinazolin-5-yl)benzamide] |
